Experimental data published in patent US8017646B2, “Histamine H3-receptor ligands and their therapeutic application” (Bioprojet, priority 2005, dated 2011).
Counter-ions that a name gives are not always drawn. Like-named read-outs stand apart in the source and are kept apart here.

What was measured:
[1] = target: CYP2D6 (Homo sapiens, UniProt P10635); experiment: Cytochrome inhibition, fluorometric assay, CYP2D6; assay type: biochemical
Experimental: (§1) The ability of drug in human to inhibit the catalytic activity of cytochrome P-450 isoforms was assayed using microtiter plate-based, fluorometric assays for the activities of the five human major CYP forms. Inhibition potential was determined in vitro after incubation of fluorescent model substrates over various incubation time with human recombinant cytochrome isoforms in the absence or in presence of increasing concentrations of test molecules (from 1 nM to 100 μM), in comparison with specific CYP isoform inhibitors. Data were expressed as quantitative inhibition parameters [inhibitor concentration that produces 50% inhibition (IC50 value)].
Incubation of drug was carried out at 37° C.±0.5° C. under agitation in the presence of human recombinant cytochrome P-450 isoforms and a NADPH generating system. The incubation conditions for each cytochrome isoform were as follow: […]

[2] = target: CYP3A4 (Homo sapiens, UniProt P08684); experiment: Cytochrome inhibition, fluorometric assay, CYP3A4; assay type: biochemical; settings: human recombinant CYP3A4, substrate BFC; read-out: cytochrome inhibition (IC50, concentrations for 50% inhibition) CYP3A4
Experimental: as §1, with “value)]. Incubation of drug was carried out at 37° C.±0.5° C. under agitation in the presence of human recombinant cytochrome P-450 isoforms and a NADPH generating system. The incubation conditions for each cytochrome isoform were as follow: [table]” for “value)].”

[3] = target: human histamine H3 receptors (Homo sapiens, UniProt Q9Y5N1); experiment: H3 binding ([125I]iodoproxyfan displacement); settings: for Ki: membranes expressing human histamine H3 receptors, [125I]iodoproxyfan
Experimental: Membranes expressing human histamine H3 receptors were incubated 1 hour at room temperature in binding buffer containing 50 mM Na2HPO4/KH2PO4 pH 7.5 in a final volume of 200 μl. […] Amersham Pharmacia Biotech) concentrations ranged between 20 and 40 pM. Non-specific binding was determined in the presence of 1 μM Imetit. The reaction was stopped by rapid filtration through GF/B filters (pre-soaked for 2 hours with 0.3% polyethyleneimine) followed by 3 ice cold binding buffer washes. The filter-bound radioactivity was measured in a liquid scintillation counter with 50 μl of scintillation fluid.

[4] = human recombinant CYP2D6, substrate AMMC, read-out: cytochrome inhibition (IC50, concentrations for 50% inhibition) CYP2D6

Chain of human histamine H3 receptors (Q9Y5N1 whole entry): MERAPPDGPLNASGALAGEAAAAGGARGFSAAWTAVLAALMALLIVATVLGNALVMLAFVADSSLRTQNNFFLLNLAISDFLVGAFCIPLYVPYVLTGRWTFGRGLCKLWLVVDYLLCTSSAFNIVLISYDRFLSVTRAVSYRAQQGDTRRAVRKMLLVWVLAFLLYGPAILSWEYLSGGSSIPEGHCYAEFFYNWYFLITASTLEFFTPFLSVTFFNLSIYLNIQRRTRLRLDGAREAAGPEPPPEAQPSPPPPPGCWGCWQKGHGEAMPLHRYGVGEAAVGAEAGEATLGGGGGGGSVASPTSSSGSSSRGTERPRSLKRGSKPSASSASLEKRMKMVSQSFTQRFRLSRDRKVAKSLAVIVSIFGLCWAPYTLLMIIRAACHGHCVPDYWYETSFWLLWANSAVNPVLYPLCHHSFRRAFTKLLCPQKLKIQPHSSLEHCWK
Chain of CYP2D6 (P10635 whole entry, canonical isoform): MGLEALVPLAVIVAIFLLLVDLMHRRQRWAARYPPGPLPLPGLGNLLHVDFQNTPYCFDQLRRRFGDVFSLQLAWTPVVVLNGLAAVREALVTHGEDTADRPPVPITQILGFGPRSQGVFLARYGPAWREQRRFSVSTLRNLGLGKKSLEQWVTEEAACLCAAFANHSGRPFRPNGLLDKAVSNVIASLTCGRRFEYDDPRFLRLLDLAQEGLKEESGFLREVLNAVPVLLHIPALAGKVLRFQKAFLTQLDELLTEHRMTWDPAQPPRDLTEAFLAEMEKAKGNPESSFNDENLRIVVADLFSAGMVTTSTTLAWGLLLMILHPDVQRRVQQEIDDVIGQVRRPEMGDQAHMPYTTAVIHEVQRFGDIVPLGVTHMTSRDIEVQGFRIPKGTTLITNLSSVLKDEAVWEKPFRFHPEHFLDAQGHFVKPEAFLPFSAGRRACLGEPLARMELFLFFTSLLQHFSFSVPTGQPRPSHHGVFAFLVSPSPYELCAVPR
Chain of CYP3A4 (P08684 whole entry, canonical isoform): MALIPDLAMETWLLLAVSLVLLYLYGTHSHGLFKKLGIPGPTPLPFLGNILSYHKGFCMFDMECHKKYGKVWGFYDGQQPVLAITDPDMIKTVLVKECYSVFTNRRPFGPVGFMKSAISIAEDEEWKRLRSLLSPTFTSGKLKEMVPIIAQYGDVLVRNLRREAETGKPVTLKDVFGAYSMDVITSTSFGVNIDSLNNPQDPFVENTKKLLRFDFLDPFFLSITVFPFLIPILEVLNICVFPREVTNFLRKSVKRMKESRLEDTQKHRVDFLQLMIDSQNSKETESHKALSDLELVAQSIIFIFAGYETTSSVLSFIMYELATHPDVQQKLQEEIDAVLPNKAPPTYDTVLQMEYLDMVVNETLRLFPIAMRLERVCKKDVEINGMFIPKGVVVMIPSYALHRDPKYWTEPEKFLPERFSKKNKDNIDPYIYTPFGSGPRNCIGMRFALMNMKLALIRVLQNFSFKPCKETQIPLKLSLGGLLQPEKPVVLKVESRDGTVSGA

| IC50 [1, 4] | IC50 [2] | melting point | Ki [3] | IC50 ([1]; comparative compound disclosed in WO 00/06254, read-out: cytochrome inhibition (IC50) CYP2D6) | SMILES | Kd ([3]; radioligand at human H3 receptor membranes, read-out: Kd (hH3 binding)) |
| --- | --- | --- | --- | --- | --- | --- |
| > 10 µM | > 10 µM | – | – | – | COc1ccc(CCCOCCCN2CCCC2)cc1OC [Example 1, 1-{3-[3-(3,4-dimethoxyphenyl)propoxy]propyl}pyrrolidine, oxalate] | – |
| > 10 µM | > 10 µM | 111 to 112 °C | – | – | COc1ccc(/C=C/COCCCN2CCCCC2)cc1OC.O=C(O)C(=O)O [Example 2, trans-1-{3-[3-(3,4-dimethoxyphenyl)allyloxy]propyl}piperidine, oxalate] | – |
| > 1 µM | > 10 µM | – | – | – | c1ccc2cc(CCCOCCCN3CCCCC3)ccc2c1 [Example 5, 1-{3-[3-(2-naphtyl)propoxy]propyl}piperidine, oxalate] | – |
| > 1 µM | > 10 µM | – | – | – | COc1cc(CCCOCCCN2CCCCC2)ccc1O [Example 6, 1-{3-[3-(4-hydroxy-3-methoxyphenyl)propoxy]propyl}piperidine, oxalate] | – |
| > 100 µM | > 100 µM | – | 1.7 nM | – | COc1cc(CCCOCCCN2CCCC2)ccc1F [Example 9, 1-{3-[3-(4-fluoro-3-methoxyphenyl)propoxy]propyl}pyrrolidine, oxalate] | – |
| > 1 µM | > 10 µM | – | – | – | Cc1cc(CCCOCCCN2CCCC2)ccc1F [Example 10, 1-{3-[3-(4-fluoro-3-methylphenyl)propoxy]propyl}pyrrolidine, oxalate] | – |
| 18 µM | 23 µM | – | 0.38 nM | – | COc1cc(F)ccc1CCCOCCCN1CCCC1 [Example 11, 1-{3-[3-(4-fluoro-2-methoxyphenyl)propoxy]propyl}pyrrolidine, oxalate] | – |
| > 1 µM | > 10 µM | – | – | – | C(=C\c1ccc2occc2c1)/COCCCN1CCCC1 [Example 12, trans-1-{3-[3-(benzofuran-5-yl)allyloxy]propyl}pyrrolidine, oxalate] | – |
| > 10 µM | > 10 µM | – | – | – | C(=C\c1ccc2c(c1)OCCO2)/COCCCN1CCCCC1.O=C(O)C(=O)O [Example 13, 1-{3-[3-(2,3-dihydrobenzo[1,4]dioxin-6-yl)allyl]oxy}propyl)piperidine, oxalate] | – |
| – | – | 120 °C | – | – | C(=C\c1ccc2c(c1)OCCO2)/COCCCN1CCCCC1.O=C(O)C(=O)O [Example 13] | – |

The next lines start with the compound.

| SMILES | IC50 [1, 4] | IC50 [2] | melting point | Ki [3] | IC50 ([1]; comparative compound disclosed in WO 00/06254, read-out: cytochrome inhibition (IC50) CYP2D6) | Kd ([3]; radioligand at human H3 receptor membranes, read-out: Kd (hH3 binding)) |
| --- | --- | --- | --- | --- | --- | --- |
| COc1ccc(CCCOCCCN2CCCCC2)cc1OC [Example 3, 1-{3-[3-(3,4-dimethoxyphenyl)propoxy]propyl}piperidine, oxalate] | > 10 µM | > 10 µM | – | – | – | – |
| Cc1ccc(CCCOCCCN2CCCCC2)cc1 [Example 4, 1-{3-[3-(4-methylphenyl)propoxy]propyl}piperidine, oxalate] | > 10 µM | > 10 µM | – | – | – | – |
| Fc1ccc(CCCOCCCN2CCCC2)cc1.O=C(O)C(=O)O [Example 7, 1-{3-[3-(4-fluorophenyl)propoxy]propyl}pyrrolidine, oxalate] | 81 µM | > 100 µM | 106 °C | – | – | – |
| COc1cc(/C=C/COCCCN2CCCC2)ccc1F [Example 8, trans-1-{3-[3-(4-fluoro-3-methoxyphenyl)allyloxy]propyl}pyrrolidine, oxalate] | > 1 µM | > 10 µM | – | – | – | – |
| C(=C\c1ccc2c(c1)OCO2)/COCCCN1CCCC1 [Example 14, trans-1-{3-[3-(benzodioxol-5-yl)allyloxy]propyl}pyrrolidine, oxalate] | 4.4 µM | 10.6 µM | – | 4.7 nM | – | – |
| Ic1ccc(COCCCc2cnc[nH]2)cc1 [[^125]iodoproxyfan, reference compound] | – | – | – | – | – | 0.078 ± 0.006 nM |
| Clc1ccc(CCCOCCCN2CCCCC2)cc1 [reference compound] | – | – | – | – | 0.059 µM | – |
